Assay results as given in US10227334B2, “Estrogen receptor modulators and uses thereof” (Genentech, Inc., priority 2013, dated 2019).

Experiments:
[1] = system: MCF-7 cells; experiment: Breast cancer cell viability assay (MCF7, CellTiter-Glo); details: for IC50: read-out: MCF7 Viability Assay: IC50, 5 days' compound exposure; for MCF7 Viability Assay: % Viability relative to Fulvestrant: 5 days' compound exposure
[2] = molecular target: ER-α (Homo sapiens (Human), UniProt P03372); experiment: Breast cancer cell ER-α In-Cell Western assay (SP1); type: cell-based; details: MCF7 cells, 4 hours post compound addition
Chain of ER-α (P03372 whole entry): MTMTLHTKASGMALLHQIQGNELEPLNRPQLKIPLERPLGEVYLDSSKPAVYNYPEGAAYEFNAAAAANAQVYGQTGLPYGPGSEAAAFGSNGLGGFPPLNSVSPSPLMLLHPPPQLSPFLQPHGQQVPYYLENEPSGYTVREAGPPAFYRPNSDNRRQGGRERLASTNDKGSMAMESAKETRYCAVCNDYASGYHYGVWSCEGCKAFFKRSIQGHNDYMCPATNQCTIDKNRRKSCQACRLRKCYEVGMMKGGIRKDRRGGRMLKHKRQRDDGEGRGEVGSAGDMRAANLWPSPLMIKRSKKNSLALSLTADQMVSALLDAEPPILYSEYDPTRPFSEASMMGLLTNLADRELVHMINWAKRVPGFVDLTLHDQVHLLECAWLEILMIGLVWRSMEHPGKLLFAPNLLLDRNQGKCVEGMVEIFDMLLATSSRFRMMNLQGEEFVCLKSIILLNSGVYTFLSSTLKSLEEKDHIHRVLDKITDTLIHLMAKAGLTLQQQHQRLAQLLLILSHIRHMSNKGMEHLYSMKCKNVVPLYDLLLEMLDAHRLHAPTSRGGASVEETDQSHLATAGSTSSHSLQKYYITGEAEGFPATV
Description: MCF7 cells were trypsinized and washed twice in Phenol Red Free RPMI containing 5% Charcoal Dextran Stripped serum with 20 mM HEPES and NEAA, then adjusted to a concentration of 200,000 cells per mL with the same medium. Next, 16 μL of the cell suspension (3200 cells) was added to each well of a poly-D-lysine coated 384 well plate, and the cells were incubated at 37° C. over 4 days to allow the cells to adhere and grow. […] At 4 hours post compound addition, the cells were fixed by adding 16 μL of 30% formalin to the 32 μL of cells and compound (10% formalin final concentration) for 20 minutes. Cells were then washed twice with PBS Tween 0.1% and then permeabilized in PBS 0.1% Triton (50 μl/well) for additional 15 minutes. The PBS 0.1% triton was decanted, and the cells were washed: LI-COR blocking buffer (50 μL/well) was added, the plate was spun at 3000 rpm, and then the blocking buffer was decanted. Additional LI-COR blocking buffer (50 μL/well) was added, and the cells were incubated overnight at 4° C. The blocking buffer was decanted, and the cells were incubated overnight at 4° C. with SP1 (Thermo Scientific) anti-ER rabbit monoclonal antibody diluted 1:1000 in LI-COR blocking buffer/0.1% Tween-20. Wells which were treated with blocking buffer with Tween but no antibody were used as a background control. Wells were washed twice with PBS Tween 0.1% to remove free SP1 antibodies, and the cells were incubated at room temp for 60-90 minutes in LI-COR goat anti-rabbit IRDye™ 800CW (1:1000) and DRAQ5 DNA dye (1:10000 of 5 mM stock solution) diluted in LI-COR blocking buffer containing 0.1% Tween-20 and 0.01% SDS. Cells were then washed with 0.1% Tween-20/PBS three times. Plates were scanned on a LI-COR Odyssey infrared imaging system. Integrated intensities in the 800 nm channel and 700 nm channel were measured to determine levels of ER-α and DNA respectively. Percent ER levels were determined as follows: (Integrated intensity 800 nm sample/integrated intensity 700 nm sample)/(Integrated intensity 800 nm untreated cells/integrated intensity 700 nm untreated cells)×100=% ER-α levels.

[3] = system: tamoxifen resistant MCF-7 tumors; experiment: Breast cancer model: xenograft assay (MCF-7 derivative, tamoxifen resistant); type: in vivo; details: female nu/nu mice
Description: Female nu/nu mice (with supplemental 17-β Estradiol pellets; 0.72 mg; 60 day slow release) bearing MCF-7 tumors (mean tumor volume 200 mm^3) were treated with Tamoxifen (citrate) by oral gavage. Tumor volume (length×width^2/2) and body weight were monitored twice weekly. Following a significant anti-tumor response in which tumor volume remained static, evident tumor growth was first observed at approximately 100 days of treatment. At 120 days of treatment, tamoxifen dose was increased. Rapidly growing tumors were deemed tamoxifen resistant and selected for in vivo passage into new host animals. Tumor Fragments (˜100 mm^3/animal) from the tamoxifen resistant tumors were subcutaneously implanted into the right flank of female nu/nu mice (with 17-β Estradiol pellets (0.72 mg; 60 day slow release)). Passaged tumors were maintained under constant Tamoxifen selection, and Tumor volume (length×width^2/2) was monitored weekly. When tumor volume reached ˜150-250 mm^3, animals were randomized into treatment groups (mean tumor volume 200 mm^3) and tamoxifen treatment was terminated (except for a tamoxifen control arm). Animals were treated with Vehicle or Compound daily for 4 weeks. Tumor volume and body weight were monitored twice weekly for the duration of the study. At the conclusion of the treatment period; plasma and tumor samples were taken for pharmacokinetic and pharmacodynamic analyses, respectively.

| IC50 [1] [nM] | ER-α In-Cell Western Assay (SP1): % ER-α remaining relative to Fulvestrant [2] [%] | Structure (SMILES) | MCF7 Viability Assay: % Viability relative to Fulvestrant [1] [%] | IC50 [2] [nM] | Number of Tumors Smaller at t = 27 days than at Start of study (t = 0 days) ([3]; 10 mpk oral dose each day) | Number of Tumors Smaller at t = 27 days than at Start of study (t = 0 days) ([3]; 30 mpk oral dose each day) | Number of Tumors Smaller at t = 27 days than at Start of study (t = 0 days) ([3]; 100 mpk oral dose each day) |
| --- | --- | --- | --- | --- | --- | --- | --- |
| 0.21 |  | CC1=C(c2cccc(O)c2)C(c2ccc(OCCN3CC(CF)C3)cc2)Oc2ccc(O)cc21 (racemic) [Example 1, (±)-2-(4-(2-(3-(Fluoromethyl)azetidin-1-yl)ethoxy)phenyl)-3-(3-hydroxyphenyl)-4-methyl-2H-chromen-6-ol] |  |  |  |  |  |
|  | 14 | CC1=C(c2cccc(O)c2)C(c2ccc(OCCN3CC(C)C3)cc2)Oc2ccc(O)cc21 (racemic) [Example 4, 3-(3-Hydroxyphenyl)-4-methyl-2-(4-(2-(3-methylazetidin-1-yl)ethoxy)phenyl)-2H-chromen-6-ol] | 13 |  |  |  |  |
|  | 24 | CC1=C(c2cccc(O)c2)C(c2ccc(OCCN3CCC3)cc2)Oc2ccc(O)cc21 (centres unmarked) [2-(4-(2-(azetidin-1-yl)ethoxy)phenyl)-3-(3-hydroxyphenyl)-4-methyl-2H-chromen-6-ol] | 25 |  |  |  |  |
|  | 8 | CC1=C(c2cccc(O)c2)C(c2ccc(OC[C@H](C)N3CC[C@@H](F)C3)cc2)Oc2ccc(O)cc21 (stereo partly drawn) [2-(4-((S)-2-((R)-3-fluoropyrrolidin-1-yl)propoxy)phenyl)-3-(3-hydroxyphenyl)-4-methyl-2H-chromen-6-ol] | 16 |  |  |  |  |
|  | 33 | CC1=C(c2cccc(O)c2)C(c2ccc(OC[C@H](C)N3CCC3)cc2)Oc2ccc(O)cc21 (stereo partly drawn) [2-(4-((S)-2-(azetidin-1-yl)propoxy)phenyl)-3-(3-hydroxyphenyl)-4-methyl-2H-chromen-6-ol] | 30 |  |  |  |  |
| 4.3 |  | CC1=C(c2cccc(O)c2)[C@@H](c2ccc(OCCN3CC(CF)C3)cc2)Oc2ccc(O)cc21 [Example 2, (R)-2-(4-(2-(3-(Fluoromethyl)azetidin-1-yl)ethoxy)phenyl)-3-(3-hydroxyphenyl)-4-methyl-2H-chromen-6-ol] |  |  |  |  |  |
| 0.07 |  | CC1=C(c2cccc(O)c2)[C@H](c2ccc(OCCN3CC(CF)C3)cc2)Oc2ccc(O)cc21 [Example 3, (S)-2-(4-(2-(3-(fluoromethyl)azetidin-1-yl)ethoxy)phenyl)-3-(3-hydroxyphenyl)-4-methyl-2H-chromen-6-ol] |  |  | 0/5 | 2/8 | 5/8 |

| Structure (SMILES) | IC50 [1] [nM] | ER-α In-Cell Western Assay (SP1): % ER-α remaining relative to Fulvestrant [2] [%] | MCF7 Viability Assay: % Viability relative to Fulvestrant [1] [%] | IC50 [2] [nM] | Number of Tumors Smaller at t = 27 days than at Start of study (t = 0 days) ([3]; 10 mpk oral dose each day) | Number of Tumors Smaller at t = 27 days than at Start of study (t = 0 days) ([3]; 30 mpk oral dose each day) | Number of Tumors Smaller at t = 27 days than at Start of study (t = 0 days) ([3]; 100 mpk oral dose each day) |
| --- | --- | --- | --- | --- | --- | --- | --- |
| CC1=C(c2cccc(O)c2)[C@H](c2ccc(OC[C@H](C)N3CC[C@@H](C)C3)cc2)Oc2ccc(O)cc21 [(S)-3-(3-Hydroxyphenyl)-4-methyl-2-(4-((S)-2-((R)-3-methylpyrrolidin-1-yl)propoxy)phenyl)-2H-chromen-6-ol] | 0.13 |  | 8 | 0.11 | 0/8 | 1/8 | 1/8 |
